Assay results reported in article PMC4707489, “A novel cell-penetrating peptide suppresses breast tumorigenesis by inhibiting β-catenin/LEF-1 signaling” (Scientific Reports, 2016).

What was measured:
Type in all cases: cell-based, human
MDA-MB-231 cells = test: Cell growth (CCK-8); settings: 75 μmol/l peptide, MDA-MB-231, CCK-8; means of three experiments (Fig. 1b)
Description: (§1) Cell growth was analyzed using 2-(2-methoxy-4-nitrophenyl)-3-(4-nitroph enyl)-5-(2,4-disulfophenyl)-2H-tetrazolium, monosodium salt, and the Cell Counting Kit-8 (CCK-8, Sigma). […] After culturing for another 48 hr, cell growth was analyzed by CCK-8 and the optical density was detected at 450 nm. The growth ratio was normalized to the cells without treatment.

MCF-7 cells [1] = test: Cell growth (CCK-8); settings: 75 μmol/l peptide, MCF-7, CCK-8; means of three experiments (Fig. 1b)
Description: as §1

MCF-7 cells [2] = test: Cell cycle analysis, sub-G1 (propidium iodide, flow cytometry); settings: MCF-7, 100 μmol/l peptide, flow cytometry (Fig. 3a)
Description: MCF-7 and MDA-MB-231 cells were plated in 6-well plates for 24 hr, and the medium was replaced with fresh culture medium containing 100 μmol/l peptide. After incubation for 24 hr, the cells were harvested by trypsinization and then fixed with 70% 4 °C ethanol. Intracellular DNA was stained with […] propidium iodide in the dark for 30 min at room temperature, and the percentages of sub-G1 cells were determined by flow cytometry (BD LSRII analyzer; BD Biosciences).

Substance | cell growth (MDA-MB-231 cells) | cell growth (MCF-7 cells [1]) | sub-G1 phase region (pro-apoptotic effect) (MCF-7 cells [2]) [%]
H-TAT-NLS-GGGDPELCATDEMIPFKDEG-NH2 [TAT-NLS-BLBD-3] | inhibited the growth | inhibited the growth | –
H-TAT-NLS-GTDEAAAA-NH2 [TAT-NLS-BLBD-6m, mutated version of TAT-NLS-BLBD-6 (GTDEAAAA), used as control peptide] | did not affect the growth | did not affect the growth | 7.35
